Measured values: patent US20090156477A1, “Compositions and Methods for Regulating Inflammatory Responses” (Massachusetts Institute of Technology, priority 2005, published 2009)

B1: FGF7: Recombinant human FGF7 from Sigma (protein, UniProt P21781 32-194, looked up)
Fibroblast growth factor 7: CNDMTPEQMATNVNCSSPERHTRSYDYMEGGDIRVRRLFCRTQWYLRIDKRGKVKGTQEMKNNYNIMEIRTVAVGIVAIKGVESEFYLAMNKEGKLYAKKECNEDCNFKELILENHYNTYASAKWTHNGGEMFVALNQKGIPVRGKKTKKEQKTAHFLPMAIT

Experiments:
caveolin-1 = test: Immunohistochemistry for caveolin-1 in Caco-2 cells; type: cell-based, human; settings: four hours after administration
Method: Caco-2 cells were grown to just prior to confluency on collagen IV coated glass slides. Cells were treated with PBS, FGF1, FGF2 and FGF7, and were incubated at 37° C. in a 5% CO2 humidified incubator for 1 hour, 4 hours, 24 hours or 48 hours, as noted. Cells were washed with PBS, fixed with 3.7% formalin for 10 minutes and washed again with PBS. Cells were treated with 0.1% Triton x-100 for 5 minutes to extract lipids. Cells were washed with PBS and preincubated with PBS supplemented with 1% bovine serum albumin. Primary antibodies were added for 4 hours at room temperature, and cells were washed with PBS. […]
Cells, except those stained with phalloidin, were washed with PBS and stained with diamidino-2-phenylindole (DAPI) for 5 minutes at room temperature (Molecular Probes). […] Cells were examined by confocal microscopy (ZO-1 and phalloidin only), or by fluorescence microscopy. A Nikon HB10101AF fluorescence microscope was used and images were captured at room temperature using a Hitachi HVC20 camera and Scion image acquisition software. […]

T84 monolayers = test: Monolayer flux of 3 kDa FITC-dextran, T84; type: cell-based, human; settings: 100 ng/ml ligand on days 10 and 12, flux measured on day 15, PBS 7.99 ± 0.22
Method: Cells were plated on transwells as described. Media from the basolateral chamber was removed every other day and replaced with new media. Resistances were followed for 10 days, and either 100 ng/ml FGF2, 100 ng/ml FGF7 or 10 μl PBS were added on days 10 and 12. On day 15, media was removed from both the apical and basolateral chambers. The basolateral chamber was filled with 1 ml HBSS. FITC conjugated to 3 kDa dextran was added to the apical chamber in a volume of 100 μl, at 1 mg/ml in HBSS. After 30, 60 and 90 minutes, 50 μl was removed from the basolateral chamber and transferred to a 96 well plate, and 50 μl HBSS was added to the basolateral chamber. Subsequently, the flux was determined by measurement of FITC-conjugated dextran that crossed the monolayer by measurement with a fluorimeter, stimulating at 480 nm and measuring emission at 530 nm.

Molecule	caveolin-1 localization (caveolin-1)	Flux across monolayers (3 kDa-dextran conjugated to FITC; function of emission at 530 nm over time) (T84 monolayers)
FGF1: Recombinant human FGF1 from Amgen	localized surrounding the nucleus	–
FGF2: Recombinant human FGF2, produced as described	–	37.21 ± 10.25
B1	–	33.39 ± 9.24
